The values that follow come from ChEMBL document CHEMBL5528068, “Structure-Activity Relationship Studies and Optimization of 4-Hydroxypyridones as GPR84 Agonists” (J Med Chem, 2024).

The target in data set [1] is T1, G-protein coupled receptor 84 (Homo sapiens, UniProt Q9NQS5). The data set can be described thus: Agonist activity at GPR84 (unknown origin) expressed in HTLA cells assessed as beta-arrestin recruitment incubated for 1 day by PRESTO-Tango assay.
The nature of data set [2]: Dissociation constant, pKa of compound by UV spectrophotometric analysis.
Data set [3] can be described thus: Solubility in PBS at pH 7.4 incubated for 24 hrs by HPLC analysis.
In data set [4] the target is T1, G-protein coupled receptor 84. The data set can be described thus: Agonist activity at GPR84 (unknown origin) expressed in doxycycline induced Flp-In-T-REx-293 cells transfected with GalphaI preincubated for 15 mins in presence of IBMX followed by forskolin stimulation for 45 mins by time-resolved fluorescence assay.
The target is the same in data set [5]. Briefly: Agonist activity at GPR84 (unknown origin) expressed in Flp-In-T-REx-293 cells transfected with GalphaI incubated for 1 hr by Topcount scintillation counting method.
The target is the same in data set [6]. Briefly: Agonist activity at GPR84 (unknown origin) expressed in HEK293T cells expressing beta-arrestin 2-nanoluciferase incubated for 5 mins by beta-arrestin recruitment based BRET assay. On the technique in general: Arrestin recruitment assays detect the binding of arrestin to an activated receptor.
Data set [7] shares this target. Briefly: Displacement of [3H]140 from GPR84 (unknown origin) expressed in Flp-In-T-REx-293 cells transfected with GalphaI incubated for 1 hr by liquid scintillation spectrometry analysis. (In general: Displacement assays read how much labelled ligand stays bound in the presence of the test substance.)

SMILES strings stand for the structures. Converted amounts (≈) assume the structure as drawn.

T1 sequence (Q9NQS5 whole entry): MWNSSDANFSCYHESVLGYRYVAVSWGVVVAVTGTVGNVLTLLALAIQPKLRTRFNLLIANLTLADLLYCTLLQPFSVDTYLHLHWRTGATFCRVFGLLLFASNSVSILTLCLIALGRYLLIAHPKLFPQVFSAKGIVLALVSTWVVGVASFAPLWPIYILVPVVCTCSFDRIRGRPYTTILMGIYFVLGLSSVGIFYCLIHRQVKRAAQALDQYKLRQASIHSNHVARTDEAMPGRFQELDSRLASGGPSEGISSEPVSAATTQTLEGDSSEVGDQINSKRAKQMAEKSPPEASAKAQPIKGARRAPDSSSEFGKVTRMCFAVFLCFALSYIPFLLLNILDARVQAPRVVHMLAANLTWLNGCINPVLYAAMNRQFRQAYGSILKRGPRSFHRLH

As to `CCCCCCCCCCCc1cc(O)cc(=O)[nH]1`, the EC50 (usually the concentration that produces a half-maximal response) in data set [1] is 0.427 nM.
On to `CCCCCCCc1cc(O)cc(O)n1`, for which the EC50 in data set [1] was 0.0468 nM. For the same compound, the pKa (commonly the negative logarithm of the acid dissociation constant) in data set [2] is 6.68.
With `CCCCCCCCc1cc(O)cc(O)n1`, the EC50 in data set [1] is 0.0275 nM.
As for `CCCCCCCCCc1cc(O)cc(O)n1`, the concentration in solution in data set [3] (solubility at 24 h) was 10 µM (≈ 2.37 µg/mL).
`CCCCCCCCNc1cc(O)cc(=O)[nH]1`: the EC50 in data set [1] was 3.31 nM.
Regarding `O=c1cc(O)cc(CCCOc2ccccc2)[nH]1`, the EC50 in data set [1] is 4.17 nM.
Same read-out and setting: the same measure for `O=C1c2ccccc2C(=O)N1CCCCc1cc(O)cc(=O)[nH]1`: 3240 nM.
As for `CCCCc1ccc(-c2cc(O)cc(O)n2)cc1`, the EC50 in data set [4] is 18.2 nM; in data set [5], 63.1 nM; in data set [6], 1620 nM; in data set [1], 25.7 nM. The compound further registered a pKa in data set [2] of 8.04.
Regarding `CCCC(=O)NCCCCc1cc(O)cc(=O)[nH]1`, the EC50 in data set [1] is 23400 nM.
Take `CCCCCc1ccc(-c2cc(O)cc(=O)[nH]2)cc1`: the EC50 was 19.5 nM in data set [4], 26.3 nM in data set [5], 2630 nM in data set [6] and 12.6 nM in data set [1].
Turning to `CCCc1ccc(CCc2cc(O)cc(=O)[nH]2)cc1`, the EC50 was 0.331 nM in data set [4], 1.2 nM in data set [5], 214 nM in data set [6] and 0.302 nM in data set [1]. In addition, in data set [7], the Ki (in general, a dissociation constant, usually derived from enzyme kinetics or from competition with a known ligand) was 13.5 nM.
Consider `CCc1ccc(CCc2cc(O)cc(=O)[nH]2)cc1`, for which, in data set [1], the EC50 was 4.47 nM.
As to `O=c1cc(O)cc(CCc2cccc(-c3ccccc3)c2)[nH]1`, the 50% effective concentration (EC50) in data set [1] is 4270 nM.
For `O=c1cc(O)cc(CCc2ccccc2)[nH]1`, in data set [2], the pKa amounted to 6.6.
For `CCCCCCCCCCc1cc(O)cc(=O)[nH]1`, the EC50 in data set [1] was 0.24 nM.
The same measure, in the same setting: the same measure for `Cc1nnc(-c2ccc(-c3cc(O)cc(=O)[nH]3)cc2)o1`: 11700 nM.
Take `CCCc1ccc(COc2cc(O)cc(=O)[nH]2)cc1`: the EC50 in data set [1] was 3.24 nM.
In the case of `O=c1cc(O)cc(-c2ccc(Oc3ccccc3)nc2)[nH]1`, the values for the EC50 in data set [4], in data set [6] and in data set [1] were 15.8 nM, 263 nM and 1.05 nM, respectively. The compound further had a Ki in data set [7] of 13.8 nM.
As for `Cc1cccc(CCc2cc(O)cc(=O)[nH]2)c1`, in data set [1], the EC50 is 389 nM.
As to `CCOc1ccc(CCc2cc(O)cc(=O)[nH]2)cc1`, the EC50 is 15.8 nM in data set [4], 33.1 nM in data set [5], 7240 nM in data set [6] and 44.7 nM in data set [1].
In the case of `CC(C)Cc1ccc(CCc2cc(O)cc(=O)[nH]2)cc1`, the EC50 is 6.76 nM in data set [4], 12 nM in data set [5], 912 nM in data set [6] and 12.6 nM in data set [1].
Consider `O=c1cc(O)cc(CCc2ccc3c(c2)Cc2ccccc2-3)[nH]1`, for which the values for the EC50 in data set [4], in data set [5] and in data set [1] were 1660 nM, 525 nM and 5010 nM, respectively.
In the case of `CCCCCCCC#Cc1cc(O)cc(=O)[nH]1`, the EC50 in data set [4] was 14.5 nM; in data set [5], 24 nM; in data set [6], 550 nM; in data set [1] it was 5.75 nM.
With `O=c1cc(O)cc(CCc2ccc(OC(F)(F)F)cc2)[nH]1`, the EC50 in data set [1] was 11 nM.
On the same count and under the same terms, next, `Cc1ccc(CCc2cc(O)cc(=O)[nH]2)cc1`: 13.8 nM; `O=c1cc(O)cc(-c2ccc(Oc3cncnc3)nc2)[nH]1`: 102 nM; `CCCCCCCOc1cc(O)cc(=O)[nH]1`: 1.32 nM.
On to `O=c1cc(O)cc(-c2ccc(Oc3ccccc3)cc2)[nH]1`, for which the EC50 in data set [4] is 1.26 nM; in data set [5], 4.27 nM; in data set [6], 209 nM; in data set [1] it was 0.912 nM. In data set [7], this compound showed a Ki of 14.8 nM.
On to `CC(C)(C)c1ccc(CCc2cc(O)cc(=O)[nH]2)cc1`, for which, in data set [1], the EC50 is 2.95 nM.
